Laboratory results reported in EP1459760A9, “Immunopotentiating inosine monophosphate 5'-nucleotidase resistant derivatives and uses thereof” (UNIVERSITY OF SOUTH FLORIDA, priority 1995, dated 1996).

Assays:
[1] = test system: influenza virus; set-up: species or system NMRI mice; details: mouse, in vivo
[2] = test system: 5'-nucleotidase; assay: Percent hydrolysis by 5'-nucleotidase, further set of experiments; type: biochemical, Crotalus atrox; details: 20 minutes, 200 µl
[3] = test system: 5'-nucleotidase (from Crotalus atrox venom); type: biochemical
[4] = in vivo; cited from earlier work

CC(C)CCCC(C)CCCC(C)CCCCC(C)CCCC(C)CCCC(C)C (stereo not drawn) [Squalane]
effect on survivors and MST [1]: no effect

Nc1ncnc2c1ncn2[C@@H]1O[C@H](COP(=O)(O)O)[C@@H](O)[C@H]1O [Adenosine MP, adenosine-5'-monophosphate]
Percent hydrolysis by 5'-nucleotidase ([2]; Assay 1): 100.0%
Percent hydrolysis by 5'-nucleotidase ([2]; Assay 2): 95.1%
Percent hydrolysis by 5'-nucleotidase ([2]; Assay 3): 63.7%
Hydrolysis (%) [3]: 86.0%

isoprinosine
half-life [4]: less than four
